As usually defined, the melting point is the temperature of the solid-liquid transition.

Experimental findings from US6620961B1, “Biarylalkylenecarbamic acid derivatives and bacteriocides for agricultural and horticultural use” (Kumiai Chemical Industry Co., Ltd., priority 1997, dated 2003) are described below.

One series has as its system Erysiphe graminis. The series is described as follows: Test for Preventive Effect on Wheat Powdery Mildew. Format: in vivo. Set-up: key: A: No diseased area; B: Diseased area of less than 25%; C: Diseased area of at least 25% but less than 50%; Diseased area of at least 50%. The following applies: wheat seedlings (Norin-61-go), 500 ppm active ingredient, 10 ml per pot, 10 days after inoculation. The method, then:
[table] Test for Preventive Effect on Wheat Powdery Mildew 9 wheat seeds (variety: […] Then, the seedlings were inoculated with […] graminis spores in suspension and placed in a greenhouse at 25 to 30° C. 10 days after the inoculation, the total diseases area of the first leaves in each pot was observed and evaluated on the basis of the standards shown in Table 59. The results are shown in Tables 67 to 71.

In a further series the test system is Botrytis cinerea. The series is described as follows: Test for Preventive Effect on Cucumber Gray Mold. Format: in vivo. Set-up: key: A: No diseased area; B: Diseased area of less than 25%; C: Diseased area of at least 25% but less than 50%; Diseased area of at least 50%. As to conditions: cotyledonary cucumber seedlings (Sagami-hanziro), 500 ppm active ingredient, 10 ml per pot, 3 days after inoculation. The method, then:
[table] Test for Preventive Effect on Cucumber Gray Mold 9 cucumber seeds (variety: Sagami-hanziro) were sown in each 9 cm−9 cm polyvinyl chloride pot and grown in a greenhouse for 7 days. […] Then, the seedlings were inoculated with milled Botrytis cinerea hyphae in solution by spraying and immediately placed in a moist chamber at 22° C. 3 days after the inoculation, the total diseased area in each pot was observed and evaluated on the basis of the standards shown in Table 59.

The next series relates to Venturia inaequalis. The series is described as follows: Test for Preventive Effect on Apple Scab. Format: in vivo. On the set-up: key: A: No diseased area; B: Diseased area of less than 25%; C: Diseased area of at least 25% but less than 50%; Diseased area of at least 50%. The following applies: 14 days after inoculation; for Evaluation (diseased area of the upper two inoculated leaves): apple seedlings (Kogyoku), 500 ppm active ingredient, 20 ml per pot; for Evaluation (diseased areas of the upper two of the inoculated leaves): apple seedlings, wettable powder at 500 ppm active ingredient, preventive. The method, then:
[table] Test for Preventive Effect on Apple Scab 5 apple seeds (variety: Kogyoku) were sown in each 9 cm×9 cm polyvinyl chloride pot and grown in a greenhouse for 20 days. […] Then, the seedlings were inoculated with Venturia inaequalis spores in suspension by spraying and immediately placed in a moist chamber at 22° C. for 48 hours. Thereafter, the seedlings were placed in a greenhouse for development of the disease. 14 days after the inoculation, the diseased areas of the upper two of the inoculated leaves were observed and evaluated on the basis of the standards shown in Table 59.

Series [1] relates to Pseudoperonospora cubensis. Put plainly: Test for Preventive Effect on Cucumber Downy Mildew. Format: in vivo. Set-up: key: A: No diseased area; B: Diseased area of less than 25%; C: Diseased area of at least 25% but less than 50%; Diseased area of at least 50%. As to conditions: cucumber seedlings, wettable powder at 500 ppm active ingredient, 7 days after inoculation. The method, then:
Test for Preventive Effect on Cucumber Downy Mildew 9 cucumber seeds (variety: Sagami-hanpaku) were sown in each 9 cmx9 cm polyvinyl chloride pot and grown in a greenhouse for 7 days. […] Then, the seedlings were inoculated with Pseudoperonospora cubensis zoosporangia in suspension by spraying and immediately placed in a moist chamber at 22° C. for 24 hours. Thereafter, the seedlings were placed in a greenhouse. 7 days after the inoculation, the total diseased area in each pot was observed and evaluated on the basis of the standards shown in Table 59. [table]

Regarding `COC(=O)NCc1cc(-c2cccc(O)c2)ccc1Cl` [2-448], the “Evaluation (total diseased area of the first leaves in each pot)” value with Erysiphe graminis was “A”. In the series on Botrytis cinerea, the “Evaluation (total diseased area in each pot)” value was “A”. The “Evaluation (diseased area of the upper two inoculated leaves)” value with Venturia inaequalis is given as “A”.

Consider `COC(=O)NCc1cc(-c2ccc(Br)cc2)ccc1Cl` [2-453], for which the “Evaluation (total diseased area of the first leaves in each pot)” value in the series with Erysiphe graminis is recorded as “A”. Besides, in the series with Botrytis cinerea, the “Evaluation (total diseased area in each pot)” value is recorded as “A”. Moreover, the “Evaluation (diseased area of the upper two inoculated leaves)” value in the series on Venturia inaequalis is on record as “A”.

For `COC(=O)NCc1cc(-c2ccc(OC)c(OC)c2)ccc1Cl` [2-455], the “Evaluation (total diseased area of the first leaves in each pot)” value in the series on Erysiphe graminis is “B (Diseased area of less than 25%)”. In the series with Botrytis cinerea, the “Evaluation (total diseased area in each pot)” value was “B (Diseased area of less than 25%)”. Further, the “Evaluation (diseased area of the upper two inoculated leaves)” value with Venturia inaequalis was “A”.

Take `COC(=O)NCc1cc(-c2ccc(Cl)cc2)ccc1OC` [2-332]: the “Evaluation (total diseased area of the first leaves in each pot)” value in the series with Erysiphe graminis was “B (Diseased area of less than 25%)”. Also, the “Evaluation (total diseased area in each pot)” value in the series on Botrytis cinerea is “B (Diseased area of less than 25%)”. Moreover, in the series on Venturia inaequalis, the “Evaluation (diseased area of the upper two inoculated leaves)” value is “A”.

Turning to `COC(=O)NC(C)c1cccc(-c2ccc(Cl)cc2)c1` (racemic) [3-5], the “Evaluation (total diseased area of the first leaves in each pot)” value in the series on Erysiphe graminis is “B (Diseased area of less than 25%)”. Moreover, the “Evaluation (total diseased area in each pot)” value with Botrytis cinerea was “B (Diseased area of less than 25%)”. In the series on Venturia inaequalis, the “Evaluation (diseased area of the upper two inoculated leaves)” value is on record as “A”.

Regarding `COC(=O)NCc1cccc(-c2cccc(C)c2)c1` [1-11], the “Evaluation (total diseased area of the first leaves in each pot)” value in the series on Erysiphe graminis is given as “A”. The “Evaluation (total diseased area in each pot)” value in the series on Botrytis cinerea is recorded as “B (Diseased area of less than 25%)”; in series [1], “A”. The “Evaluation (diseased areas of the upper two of the inoculated leaves)” value in the series on Venturia inaequalis is listed as “A”.

With `COC(=O)NC(C)c1cc(-c2ccc(F)cc2)ccc1F` (racemic) [3-28], the “Evaluation (total diseased area of the first leaves in each pot)” value in the series on Erysiphe graminis is on record as “B (Diseased area of less than 25%)”. For the same molecule, the “Evaluation (total diseased area in each pot)” value in the series with Botrytis cinerea is “B (Diseased area of less than 25%)”. In addition, the “Evaluation (diseased area of the upper two inoculated leaves)” value in the series on Venturia inaequalis is recorded as “A”.

For the molecule `COC(=O)NCc1cccc(-c2ccccc2)c1` [1-1, Methyl N-(3-phenylbenzyl)carbamate], the melting point was in the range of 49 to 52 °C. In addition, in the series on Erysiphe graminis, the “Evaluation (total diseased area of the first leaves in each pot)” value was “A”. For the same molecule, the “Evaluation (diseased areas of the upper two of the inoculated leaves)” value in the series on Venturia inaequalis is recorded as “A”.

In the case of `COC(=O)NCc1cccc(-c2ccc(Cl)cc2)c1` [1-4], in the series on Erysiphe graminis, the “Evaluation (total diseased area of the first leaves in each pot)” value is listed as “B (Diseased area of less than 25%)”. Moreover, the “Evaluation (total diseased area in each pot)” value in the series on Botrytis cinerea was “A”. Further, in the series on Venturia inaequalis, the “Evaluation (diseased areas of the upper two of the inoculated leaves)” value is reported as “A”.

Take `COC(=O)NCc1cc(-c2cccc(C(F)(F)F)c2)ccc1OC` [2-343]: the “Evaluation (total diseased area of the first leaves in each pot)” value in the series with Erysiphe graminis is given as “B (Diseased area of less than 25%)”. For the same molecule, the “Evaluation (total diseased area in each pot)” value is “B (Diseased area of less than 25%)” in the series on Botrytis cinerea and “A” in series [1]. The “Evaluation (diseased area of the upper two inoculated leaves)” value in the series on Venturia inaequalis is on record as “A”.

Regarding `CCc1cccc(-c2ccc(F)c(CNC(=O)OC)c2)c1` [2-111], in the series on Erysiphe graminis, the “Evaluation (total diseased area of the first leaves in each pot)” value is recorded as “B (Diseased area of less than 25%)”. The “Evaluation (total diseased area in each pot)” value is given as “B (Diseased area of less than 25%)” in the series on Botrytis cinerea and “A” in series [1]. Moreover, in the series with Venturia inaequalis, the “Evaluation (diseased areas of the upper two of the inoculated leaves)” value is reported as “A”.

Regarding `COC(=O)NCc1cc(-c2ccc(C)cc2)ccc1OC` [2-334], the “Evaluation (total diseased area of the first leaves in each pot)” value in the series with Erysiphe graminis is reported as “B (Diseased area of less than 25%)”. Also, the “Evaluation (total diseased area in each pot)” value in the series on Botrytis cinerea is on record as “A”; in series [1], “B (Diseased area of less than 25%)”. The “Evaluation (diseased area of the upper two inoculated leaves)” value in the series on Venturia inaequalis is recorded as “A”.

As for `COC(=O)NCc1cc(-c2cccc(Cl)c2)ccc1OC` [2-331], in the series with Erysiphe graminis, the “Evaluation (total diseased area of the first leaves in each pot)” value is “B (Diseased area of less than 25%)”. For the same molecule, the “Evaluation (total diseased area in each pot)” value (with Botrytis cinerea; in series [1]) was “A” each time. Further, in the series on Venturia inaequalis, the “Evaluation (diseased area of the upper two inoculated leaves)” value is listed as “A”.

Consider `COC(=O)NCc1cccc(-c2ccc(OC)cc2)c1` [1-42], for which the “Evaluation (total diseased area of the first leaves in each pot)” value with Erysiphe graminis is “B (Diseased area of less than 25%)”. The “Evaluation (total diseased area in each pot)” value with Botrytis cinerea is on record as “B (Diseased area of less than 25%)”. Further, the “Evaluation (diseased areas of the upper two of the inoculated leaves)” value in the series on Venturia inaequalis is on record as “A”.

Molecule `COC(=O)NC(C)c1cccc(-c2ccc(OC)cc2)c1` (stereo not shown) [3-15, Methyl N-{1-[3-(4-methoxyphenyl)phenyl]ethyl}carbamate] registered a melting point of 117 to 119 °C. Further, the “Evaluation (total diseased area in each pot)” value in series [1] is “A”.

Consider `COC(=O)NCc1cccc(-c2ccccc2)c1C` [2-1, Methyl N-(2-methyl-3-phenylbenzyl)carbamate], for which the melting point was 91 to 94 °C. For the same molecule, in the series with Erysiphe graminis, the “Evaluation (total diseased area of the first leaves in each pot)” value is recorded as “A”.

Take `COC(=O)NCc1cccc(-c2ccc(C)cc2)c1` [1-12]: the “Evaluation (total diseased area of the first leaves in each pot)” value in the series on Erysiphe graminis is given as “A”. Moreover, the entries for the “Evaluation (total diseased area in each pot)” value (in the series with Botrytis cinerea; in series [1]) were “A” and “B (Diseased area of less than 25%)”, respectively. The “Evaluation (diseased areas of the upper two of the inoculated leaves)” value in the series on Venturia inaequalis is on record as “A”.

With `COC(=O)NCc1cc(-c2ccc(C)c(C)c2)ccc1OC` [2-346], the “Evaluation (total diseased area of the first leaves in each pot)” value with Erysiphe graminis is reported as “A”. The “Evaluation (total diseased area in each pot)” value (in the series on Botrytis cinerea; in series [1]) was “B (Diseased area of less than 25%)” throughout. Also, the “Evaluation (diseased area of the upper two inoculated leaves)” value with Venturia inaequalis is on record as “A”.

Consider `COC(=O)NCc1cccc(-c2ccc(C(F)(F)F)cc2)c1` [1-35], for which the “Evaluation (total diseased area of the first leaves in each pot)” value in the series on Erysiphe graminis is “A”. Also, in the series on Botrytis cinerea, the “Evaluation (total diseased area in each pot)” value is reported as “B (Diseased area of less than 25%)”. Besides, the “Evaluation (diseased areas of the upper two of the inoculated leaves)” value with Venturia inaequalis is on record as “A”.

Regarding `COC(=O)NCc1cc(-c2cccc(C(C)=O)c2)ccc1Cl` [2-450], the “Evaluation (total diseased area of the first leaves in each pot)” value with Erysiphe graminis is reported as “A”. The “Evaluation (total diseased area in each pot)” value (in the series with Botrytis cinerea; in series [1]) was “A” each time. Besides, in the series on Venturia inaequalis, the “Evaluation (diseased area of the upper two inoculated leaves)” value is “A”.

With `COC(=O)NCc1cccc(-c2ccccc2C(F)(F)F)c1` [1-33], the “Evaluation (total diseased area of the first leaves in each pot)” value in the series on Erysiphe graminis is given as “A”. Also, the “Evaluation (total diseased area in each pot)” value in series [1] is “B (Diseased area of less than 25%)”. Besides, the “Evaluation (diseased areas of the upper two of the inoculated leaves)” value with Venturia inaequalis is “A”.

`COC(=O)NCc1cc(-c2ccc(C)cc2)ccc1I` [2-551]: in the series on Erysiphe graminis, the “Evaluation (total diseased area of the first leaves in each pot)” value is recorded as “B (Diseased area of less than 25%)”. Further, the “Evaluation (total diseased area in each pot)” value in the series on Botrytis cinerea was “B (Diseased area of less than 25%)”. The “Evaluation (diseased area of the upper two inoculated leaves)” value with Venturia inaequalis was “A”.

Regarding `COC(=O)NCc1ccc(OC)c(-c2ccccc2)c1` [2-65], in the series on Botrytis cinerea, the “Evaluation (total diseased area in each pot)” value is recorded as “B (Diseased area of less than 25%)”. Moreover, in the series with Venturia inaequalis, the “Evaluation (diseased areas of the upper two of the inoculated leaves)” value was “B (Diseased area of less than 25%)”.

Take `COC(=O)NC(C)c1cc(-c2ccc(Cl)cc2)ccc1F` (racemic) [3-30]: the “Evaluation (total diseased area of the first leaves in each pot)” value in the series on Erysiphe graminis was “B (Diseased area of less than 25%)”. The “Evaluation (total diseased area in each pot)” value in the series on Botrytis cinerea was “B (Diseased area of less than 25%)”. Moreover, the “Evaluation (diseased area of the upper two inoculated leaves)” value with Venturia inaequalis is given as “B (Diseased area of less than 25%)”.

The molecule `CC(C)OC(=O)NCc1cccc(-c2ccccc2)c1` [1-150, Isopropyl N-(3-phenylbenzyl)carbamate] displayed a melting point of 61 to 64 °C. In addition, in the series on Erysiphe graminis, the “Evaluation (total diseased area of the first leaves in each pot)” value is recorded as “B (Diseased area of less than 25%)”.

`COC(=O)NCc1cccc(-c2cccc(OC)c2)c1` [1-41]: in the series on Erysiphe graminis, the “Evaluation (total diseased area of the first leaves in each pot)” value is recorded as “A”. Further, the “Evaluation (total diseased area in each pot)” value in series [1] was “A”. In addition, in the series on Venturia inaequalis, the “Evaluation (diseased areas of the upper two of the inoculated leaves)” value is on record as “A”.
